In ChEMBL document CHEMBL1122397, “Synthesis and pharmacological characterization of (+/-)-5,9 alpha-dimethyl-2-[2-(4-fluorophenyl)ethyl]-2'-hydroxy-6,7-benzomorphan (fluorophen), a ligand suitable for visualization of opiate receptors in vivo” (J Med Chem, 1983) one finds Relative Potency and IC50 data, which are given here for three molecules.

Assay [1] is filed under the species Rattus norvegicus. Nature of the assay: Relative potency in displacing (-) naloxone(1.0) in rat brain homogenate.
The species entered for assay [2] is Rattus norvegicus. Nature of the assay: Ability to displace 50% of (-) naloxone(1.0) in rat brain homogenate.
Another assay addresses Mu-type opioid receptor (Cavia porcellus, UniProt P97266). Nature of the assay: Ability to induce 50% of maximal effect in guinea pig ileum expressing Opioid receptor mu 1. The format is tissue-based.
The species entered for assay [3] is Rattus norvegicus. The assay can be described thus: Relative potency in displacing [3H]- labeled DADLE in rat brain homogenate.
For assay [4], the species on record is Rattus norvegicus. Nature of the assay: Relative potency in displacing ((+/-) ethylketocyclazocine (2.8)) in rat brain homogenate.
Assay [5] has as its target Delta-type opioid receptor (Mus musculus) (UniProt P32300). The assay can be described thus: Relative potency to induce 50% of maximal effect in mouse vas deferens expressing Opioid receptor delta 1.
The species named for assay [6] is Rattus norvegicus. Nature of the assay: Ability to displace 50% of [3H]- labeled DADLE in rat brain homogenate.
The target of assay [7] is T1, Kappa-type opioid receptor (Homo sapiens, UniProt P41145). Nature of the assay: Ability to induce 50% of maximal effect in rabbit vas deferens expressing Opioid receptor kappa 1. The assay is classed as tissue-based, Oryctolagus cuniculus.
The target of assay [8] is Mu-type opioid receptor (Cavia porcellus) (UniProt P97266). Nature of the assay: Relative potency to induce 50% of maximal effect in guinea pig ileum expressing Opioid receptor mu 1. The assay is classed as tissue-based.
The species entered for assay [9] is Rattus norvegicus. The assay can be described thus: (§1) Ability to displace 50% of (+/-) ethylketocyclazocine (2.8) in rat brain homogenate.
Assay [10] has as its target T1, Kappa-type opioid receptor. Nature of the assay: Relative potency to induce 50% of maximal effect in rabbit vas deferens expressing Opioid receptor kappa 1. The following applies: Oryctolagus cuniculus.
The species named for the next assay is Mus musculus. The assay can be described thus: cells. Particulars: Rattus norvegicus, Brain, 3 h.
For the next assay, the target named is Opioid receptor (Rattus norvegicus, UniProt P33533+P34975+P33535). The assay is described as §1. The format is tissue-based.

T1 sequence (P41145 whole entry): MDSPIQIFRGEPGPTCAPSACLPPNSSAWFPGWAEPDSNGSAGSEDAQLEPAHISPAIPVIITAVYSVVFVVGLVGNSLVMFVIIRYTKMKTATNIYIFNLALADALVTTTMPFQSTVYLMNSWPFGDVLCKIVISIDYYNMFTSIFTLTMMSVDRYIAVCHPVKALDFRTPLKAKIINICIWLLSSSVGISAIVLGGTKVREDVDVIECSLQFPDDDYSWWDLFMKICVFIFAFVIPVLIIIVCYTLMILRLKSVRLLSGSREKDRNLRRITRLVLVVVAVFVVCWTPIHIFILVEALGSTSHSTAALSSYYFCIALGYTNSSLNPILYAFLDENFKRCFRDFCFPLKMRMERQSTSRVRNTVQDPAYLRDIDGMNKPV
Chain of Mu-type opioid receptor (Cavia porcellus) (P97266 whole entry): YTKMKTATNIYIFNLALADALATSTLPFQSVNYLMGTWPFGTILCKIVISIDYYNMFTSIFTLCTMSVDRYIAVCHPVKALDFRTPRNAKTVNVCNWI
Chain of Mu-type opioid receptor (P97266 whole entry): as above
Chain of Delta-type opioid receptor (Mus musculus) (P32300 whole entry, looked up): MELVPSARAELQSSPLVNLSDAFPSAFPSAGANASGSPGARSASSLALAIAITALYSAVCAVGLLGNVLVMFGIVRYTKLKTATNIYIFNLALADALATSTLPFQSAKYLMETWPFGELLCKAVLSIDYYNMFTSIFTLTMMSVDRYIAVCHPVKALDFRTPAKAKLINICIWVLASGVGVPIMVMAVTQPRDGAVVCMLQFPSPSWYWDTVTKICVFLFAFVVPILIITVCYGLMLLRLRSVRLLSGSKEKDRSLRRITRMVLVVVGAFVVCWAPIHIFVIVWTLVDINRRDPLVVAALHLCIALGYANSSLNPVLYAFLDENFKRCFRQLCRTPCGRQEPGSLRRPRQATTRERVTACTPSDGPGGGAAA

Turning to `CC1C2Cc3ccc(O)cc3C1(C)CCN2CCc1ccccc1` (stereo not drawn) [PHENAZOCINE], the Relative Potency in the assay filed under Rattus norvegicus [1] stood at 2.4; in the assay listed under Rattus norvegicus [3], 0.42; in the assay listed under Rattus norvegicus [4] it was 0.13; in assay [5], 1.2; in assay [8], 7.9; in assay [10], 0.4. Moreover, the IC50 (commonly the concentration that inhibits the measured activity by half) in the assay filed under Rattus norvegicus [2] came out at 82 nM; against Mu-type opioid receptor it was 9.8 nM; in the assay filed under Rattus norvegicus [6], 26 nM; in assay [7], 121 nM; in the assay filed under Rattus norvegicus [9], 65 nM.
`CC(C)C[C@H](NC(=O)[C@H](Cc1ccccc1)NC(=O)CNC(=O)CNC(=O)[C@@H](N)Cc1ccc(O)cc1)C(=O)O` [ENKEPHALIN] showed an IC50 in the assay listed under Mus musculus of 11 nM.
At Opioid receptor, `CC[C@@]12CCN(CC3CC3)C(C(=O)c3ccc(O)cc31)[C@@H]2C` [ETHYLKETOCYCLAZOCINE] gave an IC50 of 8.4 nM.
